In US9387202B2, “Pyridone amides and analogs exhibiting anti-cancer and anti-proliferative activities” (priority 2011, dated 2016):

Experiments:
[1] = target: MET (D1246N) Mutant (Homo sapiens, UniProt P08581, D1228N); test: Mutant MET kinase biochemical assay, D1246N; conditions: for Fold potency decrease versus Example 1, MET (D1246N) Mutant: relative to Example 1 = 1; for Fold potency decrease versus Example 2, MET (D1246N) Mutant: relative to Example 2 = 1
[2] = target: MET (Y1248C) Mutant (Homo sapiens, UniProt P08581, Y1230C); test: Mutant MET kinase biochemical assay, Y1248C; conditions: for Fold potency decrease versus Example 1, MET (Y1248C) Mutant: relative to Example 1 = 1; for Fold potency decrease versus Example 2, MET (Y1248C) Mutant: relative to Example 2 = 1
MET (Y1248C) Mutant, sequence (P08581 25-1408 isoform P08581-2 Y1248C limits assumed): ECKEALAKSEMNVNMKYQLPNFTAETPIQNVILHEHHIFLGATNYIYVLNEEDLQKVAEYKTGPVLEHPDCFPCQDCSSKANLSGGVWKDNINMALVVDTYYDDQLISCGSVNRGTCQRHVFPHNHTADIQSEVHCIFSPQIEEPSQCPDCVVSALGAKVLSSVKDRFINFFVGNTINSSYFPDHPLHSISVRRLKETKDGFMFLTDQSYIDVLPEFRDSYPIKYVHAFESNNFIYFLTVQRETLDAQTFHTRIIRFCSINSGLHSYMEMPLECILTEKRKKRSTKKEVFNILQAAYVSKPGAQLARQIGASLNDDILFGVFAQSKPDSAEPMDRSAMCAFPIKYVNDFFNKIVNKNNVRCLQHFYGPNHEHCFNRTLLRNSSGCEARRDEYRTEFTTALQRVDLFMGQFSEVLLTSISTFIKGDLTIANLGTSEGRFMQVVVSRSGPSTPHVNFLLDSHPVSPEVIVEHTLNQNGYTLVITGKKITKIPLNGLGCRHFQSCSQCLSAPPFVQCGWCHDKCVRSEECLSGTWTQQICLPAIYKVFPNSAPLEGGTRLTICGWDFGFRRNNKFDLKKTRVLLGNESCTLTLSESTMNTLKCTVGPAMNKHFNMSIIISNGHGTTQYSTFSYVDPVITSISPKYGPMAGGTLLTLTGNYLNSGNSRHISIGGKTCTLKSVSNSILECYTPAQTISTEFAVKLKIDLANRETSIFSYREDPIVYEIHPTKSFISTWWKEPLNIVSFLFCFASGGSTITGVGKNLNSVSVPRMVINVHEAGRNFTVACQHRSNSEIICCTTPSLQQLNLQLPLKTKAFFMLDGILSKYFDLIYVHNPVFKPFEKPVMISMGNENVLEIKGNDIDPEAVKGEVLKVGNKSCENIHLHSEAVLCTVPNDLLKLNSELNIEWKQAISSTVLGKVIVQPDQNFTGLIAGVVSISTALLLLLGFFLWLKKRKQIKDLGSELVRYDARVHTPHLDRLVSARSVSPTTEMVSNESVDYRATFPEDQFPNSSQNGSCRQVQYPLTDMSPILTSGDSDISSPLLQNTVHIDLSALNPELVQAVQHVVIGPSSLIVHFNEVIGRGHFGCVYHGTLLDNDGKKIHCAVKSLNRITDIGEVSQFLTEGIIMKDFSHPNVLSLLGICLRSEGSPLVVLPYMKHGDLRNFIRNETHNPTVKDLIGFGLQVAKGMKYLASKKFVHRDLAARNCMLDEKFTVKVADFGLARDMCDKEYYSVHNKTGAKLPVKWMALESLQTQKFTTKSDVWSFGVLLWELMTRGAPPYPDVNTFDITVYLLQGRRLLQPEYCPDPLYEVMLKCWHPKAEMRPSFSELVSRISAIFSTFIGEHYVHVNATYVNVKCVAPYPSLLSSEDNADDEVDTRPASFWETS

[3] = tested on: A549 cells; test: A549 HGF-stimulated MET-dependent cell migration assay; assay type: cell-based
[4] = target: T1, c-MET kinase (Seq. ID No. 2), cMET WT (Homo sapiens, UniProt P08581); test: c-MET kinase assay (WT MET biochemical assay); conditions: for Fold potency decrease versus Example 1, cMET WT: relative to Example 1 = 1; for Fold potency decrease versus Example 2, cMET WT: relative to Example 2 = 1
T1 construct: c-MET (c-MET residues: 956-1390, from Invitrogen, catalogue #PV3143, 6 nM); purchased Invitrogen PV3143
T1 sequence (P08581 with tags, fused parts or gaps): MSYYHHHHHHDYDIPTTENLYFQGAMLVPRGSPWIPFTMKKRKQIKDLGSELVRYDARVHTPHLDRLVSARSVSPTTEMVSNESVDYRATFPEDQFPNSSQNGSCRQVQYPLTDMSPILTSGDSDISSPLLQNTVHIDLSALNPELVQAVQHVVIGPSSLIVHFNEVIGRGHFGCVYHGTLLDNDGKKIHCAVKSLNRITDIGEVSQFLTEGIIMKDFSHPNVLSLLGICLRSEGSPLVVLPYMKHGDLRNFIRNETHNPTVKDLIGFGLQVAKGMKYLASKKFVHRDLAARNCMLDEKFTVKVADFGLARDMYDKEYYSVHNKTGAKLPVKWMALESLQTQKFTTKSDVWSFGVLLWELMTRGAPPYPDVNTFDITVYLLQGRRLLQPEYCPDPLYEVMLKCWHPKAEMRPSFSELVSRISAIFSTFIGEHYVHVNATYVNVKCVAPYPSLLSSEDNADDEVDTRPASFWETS
Procedure: Activity of c-MET kinase (Seq. ID No. 2) was determined by following the production of ADP from the kinase reaction through coupling with the pyruvate kinase/lactate dehydrogenase system (e.g., Schindler et al. Science 2000, 289, pp. 1938-1942). In this assay, the oxidation of NADH (thus the decrease at A340 nm) was continuously monitored spectrophotometrically. The reaction mixture (100 μl) contained c-MET (c-MET residues: 956-1390, from Invitrogen, catalogue #PV3143, 6 nM), polyE4Y (1 mg/mL), MgCl2 (10 mM), pyruvate kinase (4 units), lactate dehydrogenase (0.7 units), phosphoenol pyruvate (1 mM), and NADH (0.28 mM) in 90 mM Tris buffer containing 0.25 mM DTT, 0.2% octyl-glucoside and 1% DMSO, pH 7.5. Test compounds were incubated with c-MET (Seq. ID No. 2) and other reaction reagents at 22° C. for 0.5 h before ATP (100 μM) was added to start the reaction. The absorption at 340 nm was monitored continuously for 2 hours at 30° C. on Polarstar Optima plate reader (BMG). The reaction rate was calculated using the 1.0 to 2.0 h time frame. Percent inhibition was obtained by comparison of reaction rate with that of a control (i.e., with no test compound). IC50 values were calculated from a series of percent inhibition values determined at a range of inhibitor concentrations using software routines as implemented in the GraphPad Prism software package.

[5] = target: T2, Phospho-MET in MKN-45 cells (Homo sapiens, UniProt P08581); test: MKN-45 Phospho-MET ELISA; assay type: cell-based
T2 construct: host or cells: MKN-45
Procedure: MKN-45 cells (catalog #JCRB0254) were obtained from the Japan Health Science Research Resources Bank, Osaka, Japan. Briefly, cells were grown in RPMI 1640 media supplemented with 10% characterized fetal bovine serum (Invitrogen, Carlsbad, Calif.) at 37° C., 5% CO2, 95% humidity. Cells were allowed to expand until reaching 70-95% confluency at which point they were subcultured or harvested for assay use.
Twenty-five thousand cells in RPMI-1640 supplemented with 10% characterized fetal bovine serum (Invitrogen, Carlsbad, Calif.) were added per well in a 96-well black clear bottom plate (Corning, Corning, N.Y.). Cells were then incubated overnight at 37 degrees Celsius, 5% CO2, 95% humidity. Media was then aspirated and cells were washed with PBS. A serial dilution of test compound was dispensed into another 96-well black clear bottom plate (Corning, Corning, N.Y.) containing serum-free RPMI-1640. Compound was added to plates containing cells and incubated for 6 hours at 37 degrees Celsius, 5% CO2, 95% humidity. Cells were stimulated with 40 ng/mL HGF (R&D Systems, Minneapolis, Minn.) for 10 minutes, and then lysed. Phospho-MET in cell lysates was detected using the DuoSet IC Human Phospho-HGF R/c-MET ELISA (R&D Systems, Minneapolis, Minn.). Data was analyzed using Prism software (Graphpad, San Diego, Calif.) to calculate IC50 values.

[6] = tested on: oncogenic Mutant MET kinase; test: various oncogenic Mutant MET kinase biochemical assays (summarised); conditions: range over columns 3-6; for Fold less potent than Example 1 in the various oncogenic Mutant MET kinase biochemical assays: relative to Example 1; for Fold less potent than Example 2 in the various oncogenic Mutant MET kinase biochemical assays: relative to Example 2
[7] = target: T3, Phospho-MET in EBC-1 cells (Homo sapiens, UniProt P08581); test: EBC-1 Phospho-MET ELISA; assay type: cell-based
T3 construct: host or cells: EBC-1
Procedure: EBC-1 cells (catalog #JCRB0820) were obtained from the Japan Health Science Research Resources Bank, Osaka, Japan. Briefly, cells were grown in DMEM supplemented with 10% characterized fetal bovine serum (Invitrogen, Carlsbad, Calif.) at 37° C., 5% CO2, 95% humidity. Cells were allowed to expand until reaching 70-95% confluency at which point they were subcultured or harvested for assay use.
Fifteen thousand cells in DMEM supplemented with 0.5% characterized fetal bovine serum (FBS; Invitrogen, Carlsbad, Calif.) were added per well in a 96-well black clear bottom plate (Corning, Corning, N.Y.). Cells were then incubated overnight at 37 degrees Celsius, 5% CO2, 95% humidity. A serial dilution of test compound was dispensed into another 96-well black clear bottom plate (Corning, Corning, N.Y.) containing DMEM supplemented with 0.5% FBS. Diluted compound was then added to plates containing cells and incubated for 6 hours at 37 degrees Celsius, 5% CO2, 95% humidity. Cells were stimulated with 40 ng/mL HGF (R&D Systems, Minneapolis, Minn.) for 10 minutes, and then lysed. Phospho-MET in cell lysates was detected using the DuoSet IC Human Phospho-HGF R/c-MET ELISA (R&D Systems, Minneapolis, Minn.). Data was analyzed using Prism software (Graphpad, San Diego, Calif.) to calculate IC50 values.

[8] = target: MET (D1246H) Mutant (Homo sapiens, UniProt P08581, D1228H); test: Mutant MET kinase biochemical assay, D1246H; conditions: for Fold potency decrease versus Example 1, MET (D1246H) Mutant: relative to Example 1 = 1; for Fold potency decrease versus Example 2, MET (D1246H) Mutant: relative to Example 2 = 1
MET (D1246H) Mutant, sequence (P08581 25-1408 isoform P08581-2 D1246H limits assumed): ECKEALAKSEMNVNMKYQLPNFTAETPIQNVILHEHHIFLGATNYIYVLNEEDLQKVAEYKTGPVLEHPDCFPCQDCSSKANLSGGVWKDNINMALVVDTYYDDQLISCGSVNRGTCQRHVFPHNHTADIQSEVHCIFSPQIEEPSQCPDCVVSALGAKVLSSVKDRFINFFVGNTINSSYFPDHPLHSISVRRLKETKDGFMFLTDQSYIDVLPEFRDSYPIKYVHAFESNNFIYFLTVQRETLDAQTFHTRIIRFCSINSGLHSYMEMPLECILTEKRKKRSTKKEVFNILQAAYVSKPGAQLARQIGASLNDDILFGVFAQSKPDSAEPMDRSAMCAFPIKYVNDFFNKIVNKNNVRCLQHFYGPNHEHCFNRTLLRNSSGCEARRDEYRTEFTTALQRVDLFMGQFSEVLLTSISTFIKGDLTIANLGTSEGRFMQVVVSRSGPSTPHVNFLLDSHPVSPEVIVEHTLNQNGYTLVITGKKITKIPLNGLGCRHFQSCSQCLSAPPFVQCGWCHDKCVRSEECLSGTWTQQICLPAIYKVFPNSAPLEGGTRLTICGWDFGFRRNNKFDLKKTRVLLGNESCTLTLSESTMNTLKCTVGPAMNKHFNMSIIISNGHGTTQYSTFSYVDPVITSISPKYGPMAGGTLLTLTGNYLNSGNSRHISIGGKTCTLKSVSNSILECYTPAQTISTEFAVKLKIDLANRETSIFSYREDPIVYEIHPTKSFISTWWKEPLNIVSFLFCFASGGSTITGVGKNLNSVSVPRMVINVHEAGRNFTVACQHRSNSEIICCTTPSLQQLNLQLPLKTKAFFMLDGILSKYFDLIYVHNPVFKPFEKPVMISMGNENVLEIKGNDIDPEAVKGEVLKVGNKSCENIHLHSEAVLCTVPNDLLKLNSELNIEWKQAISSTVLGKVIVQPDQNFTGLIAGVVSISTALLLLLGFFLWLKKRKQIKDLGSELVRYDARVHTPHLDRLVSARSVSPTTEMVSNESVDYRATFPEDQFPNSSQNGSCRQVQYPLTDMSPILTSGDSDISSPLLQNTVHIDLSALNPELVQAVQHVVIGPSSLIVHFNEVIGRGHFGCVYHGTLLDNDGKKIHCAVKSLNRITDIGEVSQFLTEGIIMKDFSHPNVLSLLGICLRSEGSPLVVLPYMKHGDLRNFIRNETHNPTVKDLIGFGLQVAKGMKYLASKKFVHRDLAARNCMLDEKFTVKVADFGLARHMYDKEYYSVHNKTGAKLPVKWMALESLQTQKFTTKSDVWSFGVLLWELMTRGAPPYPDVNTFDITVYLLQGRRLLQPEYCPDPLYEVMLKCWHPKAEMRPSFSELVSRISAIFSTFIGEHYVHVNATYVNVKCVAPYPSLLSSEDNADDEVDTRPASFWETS

[9] = target: MET (Y1248H) Mutant (Homo sapiens, UniProt P08581, Y1230H); test: Mutant MET kinase biochemical assay, Y1248H; conditions: for Fold potency decrease versus Example 1, MET (Y1248H) Mutant: relative to Example 1 = 1; for Fold potency decrease versus Example 2, MET (Y1248H) Mutant: relative to Example 2 = 1
[10] = relative to Example 1 = 1, listed as the '229 Compound
[11] = relative to Example 2 = 1, listed as the '229 Compound

MET (D1246N) Mutant, sequence (P08581 25-1408 isoform P08581-2 D1246N limits assumed): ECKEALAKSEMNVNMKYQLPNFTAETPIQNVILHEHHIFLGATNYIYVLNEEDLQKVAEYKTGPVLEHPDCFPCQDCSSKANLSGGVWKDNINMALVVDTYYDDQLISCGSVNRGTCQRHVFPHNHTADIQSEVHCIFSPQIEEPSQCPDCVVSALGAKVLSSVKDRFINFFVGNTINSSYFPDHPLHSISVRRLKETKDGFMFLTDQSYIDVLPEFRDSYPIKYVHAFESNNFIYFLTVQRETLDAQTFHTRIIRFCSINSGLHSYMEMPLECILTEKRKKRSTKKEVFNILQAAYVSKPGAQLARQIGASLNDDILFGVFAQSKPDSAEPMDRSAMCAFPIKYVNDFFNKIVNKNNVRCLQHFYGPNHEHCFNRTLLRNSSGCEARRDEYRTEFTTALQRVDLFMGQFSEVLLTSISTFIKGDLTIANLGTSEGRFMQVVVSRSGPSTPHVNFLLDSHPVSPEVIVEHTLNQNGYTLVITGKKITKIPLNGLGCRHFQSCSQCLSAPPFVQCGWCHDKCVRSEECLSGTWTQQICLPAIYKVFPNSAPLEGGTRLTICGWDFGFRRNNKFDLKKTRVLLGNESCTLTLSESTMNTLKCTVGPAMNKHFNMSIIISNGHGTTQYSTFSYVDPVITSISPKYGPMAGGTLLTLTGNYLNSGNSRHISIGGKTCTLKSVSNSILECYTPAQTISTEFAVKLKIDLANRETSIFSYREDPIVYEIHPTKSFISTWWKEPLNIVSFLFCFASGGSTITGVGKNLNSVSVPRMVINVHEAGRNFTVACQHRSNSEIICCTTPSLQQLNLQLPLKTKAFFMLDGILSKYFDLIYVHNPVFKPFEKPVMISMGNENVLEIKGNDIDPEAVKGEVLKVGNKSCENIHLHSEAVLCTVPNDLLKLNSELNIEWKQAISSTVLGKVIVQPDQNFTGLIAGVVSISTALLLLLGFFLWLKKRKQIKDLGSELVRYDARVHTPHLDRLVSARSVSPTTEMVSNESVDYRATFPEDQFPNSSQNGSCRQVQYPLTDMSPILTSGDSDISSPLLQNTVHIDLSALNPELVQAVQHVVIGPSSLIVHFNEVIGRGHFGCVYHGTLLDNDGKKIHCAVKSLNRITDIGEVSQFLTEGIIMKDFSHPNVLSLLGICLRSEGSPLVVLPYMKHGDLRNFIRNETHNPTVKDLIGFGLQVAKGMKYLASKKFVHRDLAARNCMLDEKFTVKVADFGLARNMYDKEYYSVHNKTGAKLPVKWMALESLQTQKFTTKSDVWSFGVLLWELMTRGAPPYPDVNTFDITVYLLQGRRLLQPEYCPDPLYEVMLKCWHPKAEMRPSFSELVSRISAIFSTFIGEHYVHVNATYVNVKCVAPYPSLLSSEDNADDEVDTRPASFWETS

## CCOc1ccn(-c2ccc(F)cc2)c(=O)c1C(=O)Nc1cc(F)c(Oc2ccnc(N)c2)cc1F [Compound A, N-(4-((2-aminopyridin-4-yl)oxy)-2,5-difluorophenyl)-4-ethoxy-1-(4-fluorophenyl)-2-oxo-1,2-dihydropyridine-3-carboxamide]
[1]
  Fold potency decrease versus Example 1, MET (D1246N) Mutant: 4.4×
  Fold potency decrease versus Example 2, MET (D1246N) Mutant: 5.7×
[2]
  Fold potency decrease versus Example 1, MET (Y1248C) Mutant: 6×
  Fold potency decrease versus Example 2, MET (Y1248C) Mutant: 5.7×
[3]; relative to Example 1 = 1
  Fold potency decrease versus Example 1, A549 MIG: 3.4 ×
[3]; relative to Example 2 = 1
  Fold potency decrease versus Example 2, A549 MIG: 8.9 ×
[4]
  Fold potency decrease versus Example 1, cMET WT: 2.4 ×
  Fold potency decrease versus Example 2, cMET WT: 2.7 ×
[5]; relative to Example 1 = 1
  Fold potency decrease versus Example 1, MKN-45 p-MET: 18.8 ×
[5]; relative to Example 2 = 1
  Fold potency decrease versus Example 2, MKN-45 p-MET: 18.8 ×
[6]
  Fold less potent than Example 1 in the various oncogenic Mutant MET kinase biochemical assays: 2.6-6.7 ×
  Fold less potent than Example 2 in the various oncogenic Mutant MET kinase biochemical assays: 4-18.3 ×
[7]; relative to Example 1 = 1
  Fold potency decrease versus Example 1, EBC-1 p-MET: 11.7 ×
[7]; relative to Example 2 = 1
  Fold potency decrease versus Example 2, EBC-1 p-MET: 21.5 ×
[8]
  Fold potency decrease versus Example 1, MET (D1246H) Mutant: 6.7×
  Fold potency decrease versus Example 2, MET (D1246H) Mutant: 4×
[9]
  Fold potency decrease versus Example 1, MET (Y1248H) Mutant: 2.6×
  Fold potency decrease versus Example 2, MET (Y1248H) Mutant: 18.3×

## CCOc1ccn(-c2ccc(F)cc2)c(=O)c1C(=O)Nc1cc(F)c(Oc2ccnc(NC(C)=O)c2)cc1F [Example 1, N-(4-((2-acetamidopyridin-4-yl)oxy)-2,5-difluorophenyl)-4-ethoxy-1-(4-fluorophenyl)-2-oxo-1,2-dihydropyridine-3-carboxamide]
[1]
  Fold potency decrease versus Example 1, MET (D1246N) Mutant: 1 ×
[2]
  Fold potency decrease versus Example 1, MET (Y1248C) Mutant: 1 ×
[3]; relative to Example 1 = 1
  Fold potency decrease versus Example 1, A549 MIG: 1 ×
[4]
  Fold potency decrease versus Example 1, cMET WT: 1 ×
[5]; relative to Example 1 = 1
  Fold potency decrease versus Example 1, MKN-45 p-MET: 1 ×
[7]; relative to Example 1 = 1
  Fold potency decrease versus Example 1, EBC-1 p-MET: 1 ×
[8]
  Fold potency decrease versus Example 1, MET (D1246H) Mutant: 1 ×
[9]
  Fold potency decrease versus Example 1, MET (Y1248H) Mutant: 1 ×

## CCOc1ccn(-c2ccc(F)cc2)c(=O)c1C(=O)Nc1cc(F)c(Oc2ccnc(NC(=O)CC)c2)cc1F [Example 2, N-(2,5-difluoro-4-((2-propionamidopyridin-4-yl)oxy)phenyl)-4-ethoxy-1-(4-fluorophenyl)-2-oxo-1,2-dihydropyridine-3-carboxamide]
[1]
  Fold potency decrease versus Example 2, MET (D1246N) Mutant: 1 ×
[2]
  Fold potency decrease versus Example 2, MET (Y1248C) Mutant: 1 ×
[3]; relative to Example 2 = 1
  Fold potency decrease versus Example 2, A549 MIG: 1 ×
[4]
  Fold potency decrease versus Example 2, cMET WT: 1 ×
[5]; relative to Example 2 = 1
  Fold potency decrease versus Example 2, MKN-45 p-MET: 1 ×
[7]; relative to Example 2 = 1
  Fold potency decrease versus Example 2, EBC-1 p-MET: 1 ×
[8]
  Fold potency decrease versus Example 2, MET (D1246H) Mutant: 1 ×
[9]
  Fold potency decrease versus Example 2, MET (Y1248H) Mutant: 1 ×

## CCOc1ccn(-c2ccc(F)cc2)c(=O)c1C(=O)Nc1ccc(Oc2ccnc(N)c2Cl)c(F)c1 [The ′229 Compound]
[1]
  Fold potency decrease versus Example 1, MET (D1246N) Mutant: 2×
  Fold potency decrease versus Example 2, MET (D1246N) Mutant: 2.5×
[2]
  Fold potency decrease versus Example 1, MET (Y1248C) Mutant: 3.8×
  Fold potency decrease versus Example 2, MET (Y1248C) Mutant: 3.6×
[3]; relative to Example 1 = 1
  Fold potency decrease versus Example 1, A549 MIG: 2.4×
[3]; [10]
  Fold potency decrease versus Example 1, A549 MIG: 2.4 ×
[3]; relative to Example 2 = 1
  Fold potency decrease versus Example 2, A549 MIG: 6.3×
[3]; [11]
  Fold potency decrease versus Example 2, A549 MIG: 6.3 ×
[4]
  Fold potency decrease versus Example 1, cMET WT: 3.9×
  Fold potency decrease versus Example 2, cMET WT: 4.4×
[4]; listed as the '229 Compound
  Fold potency decrease versus Example 1, cMET WT: 3.9 ×
  Fold potency decrease versus Example 2, cMET WT: 4.4 ×
[5]; relative to Example 1 = 1
  Fold potency decrease versus Example 1, MKN-45 p-MET: 73.8×
[5]; [10]
  Fold potency decrease versus Example 1, MKN-45 p-MET: 73.8 ×
[5]; relative to Example 2 = 1
  Fold potency decrease versus Example 2, MKN-45 p-MET: 73.7×
[5]; [11]
  Fold potency decrease versus Example 2, MKN-45 p-MET: 73.7 ×
[6]
  Fold less potent than Example 1 in the various oncogenic Mutant MET kinase biochemical assays: 2.3-8.5 ×
  Fold less potent than Example 2 in the various oncogenic Mutant MET kinase biochemical assays: 2.5-15.7 ×
[7]; relative to Example 1 = 1
  Fold potency decrease versus Example 1, EBC-1 p-MET: 22.5×
[7]; [10]
  Fold potency decrease versus Example 1, EBC-1 p-MET: 22.5 ×
[7]; relative to Example 2 = 1
  Fold potency decrease versus Example 2, EBC-1 p-MET: 41.5×
[7]; [11]
  Fold potency decrease versus Example 2, EBC-1 p-MET: 41.5 ×
[8]
  Fold potency decrease versus Example 1, MET (D1246H) Mutant: 8.5×
  Fold potency decrease versus Example 2, MET (D1246H) Mutant: 5.1×
[9]
  Fold potency decrease versus Example 1, MET (Y1248H) Mutant: 2.3×
  Fold potency decrease versus Example 2, MET (Y1248H) Mutant: 15.7×
